Measurements reported in patent US20050220996A1, “Process for coating a pharmaceutical particle” (priority 2002, published 2005).

Conditions: magnetic stirrer, Tween 80 as wetting agent (FIG. 11)
Excerpt: The dissolution behavior of NaCl in water was studied by measuring conductivity as a function of time while stirring at a constant rate using a magnetic stirrer. To ensure complete wetting, Tween 80 was used as a wetting agent.

Substance: Sodium chloride [Uncoated]
- conductivity profile (dissolution in water): instantaneous conductivity profile
